# Experimental data taken from US5235045A, “Non-azo naphthalimide dyes” (priority 1992, dated 1993).
# Read-outs that look alike come from different tables or passages of the source.
# What was measured:
# [1] = system: Herpes simplex virus type 1; experiment: Effect of prior activation of Ed6Br with 420 nm light on HSV-1 (plaque assay); format: cell-based, MacIntyre strain; settings: for log reduction at 25 µM / log reduction at 100 µM: Human alphaherpesvirus 1, 24 h, read-out: Log10 Reduction
# [2] = Bleaching kinetics in synthetic vesicles; format: physicochemical; settings: 150-W xenon arc lamp, 20° C.
# Method: (§1) The dye was incorporated into synthetic vesicles as described above. The vesicles were irradiated with a 150-W Oriel xenon arc lamp at a distance of 4 cm from the lens at a thermostated temperature of 20° C. The change in fluorescence intensity with time was determined above, and the results plotted as a standard first order plot.
# [3] = Bleaching in distearoylphosphatidyl choline vesicles; format: physicochemical; settings: irradiated vesicles
# Method: as §1
# H9 cells = experiment: Take-up of Ed6Br by H9 cells; format: cell-based, human; settings: for Cellular Ed6Br: 22° C.
# Method: H9 cells (an immortal human T-cell lymphoma) were cultured in RPMI-1640 medium containing 10% additional fetal calf serum held in air with a 5% CO2 atmosphere at 37.5° C. to a cell density in the range of 10^5 -10^7 per ml. Cells were harvested by centrifugation and four 3-milliliter aliquots containing 5×10^5 H9 cells per ml suspended in RPM I-1640 medium with 10% additional fetal calf serum were prepared. […] The fourth aliquot served as a dye-free control. Immediately after addition of the dyes, 1 ml samples were harvested from each aliquot and the cells washed by dilution into 3 ml phosphate buffered saline (pH 7.3), followed by two repetitions of centrifugation, decantation of the supernatant, and resuspension of the cell pellet in the buffered saline solution, and a final centrifugation, decantation, and retention of the cell pellet at 4° C. for subsequent analysis. At the subsequent elapsed incubation times at 1, 2, 3, and 4 hrs., one milliliter samples were harvested and treated in an identical fashion. After treatment of the 4-hr. sample, the cells of each sample were lysed in 3 ml of an 0.1% solution of ctyltetraammonium bromide detergent in phosphate buffered saline (pH=7.3). The fluorescence emission at 520 nm (420 nm excitation) of each sample was determined with a SLM SPT 500C spectrofluorometer. Additionally, the emission intensity of samples of these detergent solutions having, respectively, dye concentrations of […] were prepared as standards for calibrating the concentration dependence of the fluorescence emission.
# [4] = 4 hr, external 25 mM (so in the source)
compound,measurement,setting,value
"CCCCCCNc1c(Br)cc2c3c(cccc13)C(=O)N(CCCCCC)C2=O [Compound VII, 3-bromo-4-(hexyl)amino-N-hexyl-1,8-naphthalimide]",PFU/ml,"[1]; 25 μM, prior activation +",8.4 × 10^3 PFU/ml
same,PFU/ml,"[1]; 25 μM, prior activation -",4.5 × 10^4 PFU/ml
same,PFU/ml,"[1]; 100 μM, prior activation +",3.0 × 10^1 PFU/ml
same,PFU/ml,"[1]; 100 μM, prior activation -",9.0 × 10^3 PFU/ml
same,log reduction at 25 µM,"[1]; 25 μM, prior activation +",1.51
same,log reduction at 25 µM,"[1]; 25 μM, prior activation -",0.78
same,log reduction at 100 µM,"[1]; 100 μM, prior activation +",3.95
same,log reduction at 100 µM,"[1]; 100 μM, prior activation -",1.48
same,kill of HSV-1,"[1]; as low as 100 mM, activated prior to addition to viral suspension",> 99.99%
same,rate constant for bleaching,[2]; 0 mol % cholesterol,1.08 ± 0.08 × 10^-3 s^-1
same,rate constant for bleaching,[2]; 15 mol % cholesterol,2.00 ± 0.13 × 10^-3 s^-1
same,rate constant for bleaching,[2]; 30 mol % cholesterol,3.08 ± 0.20 × 10^-3 s^-1
same,rate constant for bleaching,[2]; 45 mol % cholesterol,3.1 ± 0.9 × 10^-3 s^-1
same,bleaching,[3],do not bleach
same,photodegradation of the dye,[3],only very slow photodegradation
same,average dye concentration in H9 cell,H9 cells; [4],about 1.92 millimolar
same,cellular over external concentration,H9 cells; [4],approximately 77 times
same,increased concentration of the dye by the cell,"H9 cells; 4 hr, external 1 and 5 mm (so in the source)",~70 fold
same,Cellular Ed6Br,"H9 cells; external 1 μM, 0 hr, 1 a° mol = 1 × 10^-18 mol",91.2 a° mol/cell
same,Cellular Ed6Br,"H9 cells; external 1 μM, 1 hr",130.2 a° mol/cell
same,Cellular Ed6Br,"H9 cells; external 1 μM, 2 hr",189.8 a° mol/cell
same,Cellular Ed6Br,"H9 cells; external 1 μM, 3 hr",186.0 a° mol/cell
same,Cellular Ed6Br,"H9 cells; external 1 μM, 4 hr",208.3 a° mol/cell
same,Cellular Ed6Br,"H9 cells; external 5 μM, 0 hr",165.6 a° mol/cell
same,Cellular Ed6Br,"H9 cells; external 5 μM, 1 hr",385.1 a° mol/cell
same,Cellular Ed6Br,"H9 cells; external 5 μM, 2 hr",437.2 a° mol/cell
same,Cellular Ed6Br,"H9 cells; external 5 μM, 3 hr",468.8 a° mol/cell
same,Cellular Ed6Br,"H9 cells; external 5 μM, 4 hr",548.9 a° mol/cell
same,Cellular Ed6Br,"H9 cells; external 25 μM, 0 hr",316.2 a° mol/cell
same,Cellular Ed6Br,"H9 cells; external 25 μM, 1 hr",716.3 a° mol/cell
same,Cellular Ed6Br,"H9 cells; external 25 μM, 2 hr",1073.4 a° mol/cell
same,Cellular Ed6Br,"H9 cells; external 25 μM, 3 hr",1689.3 a° mol/cell
same,Cellular Ed6Br,"H9 cells; external 25 μM, 4 hr",1748.8 a° mol/cell
